Experimental data published in patent publication US20120178815A1, “Compositions of (-)-E-10-OH-NT and Methods for Their Synthesis and Use” (Adolor Corporation, priority 2007, published 2012).
pIC50, pKi: −log10 of the molar value.

Legend:
[1] = molecular target: T1, human H1 histaminergic receptor (Homo sapiens, UniProt P35367); assay: H1 histaminergic receptor competitive binding assay, [3H]pyrilamine; details: for reduction of H1 histaminergic receptor affinity compared to AT: relative to AT; for reduction of H1 histaminergic receptor affinity compared to NT: relative to NT
T1 construct: expressed in transfected cells; host or cells: HEK-293 cells (membranes)
Description: Protocol. The affinities of AT, NT, (+)-E-10-OH-NT and (−)-E-10-OH-NT for the H1 histaminergic receptor were assessed in a competitive binding assay. For the assay, [^3H]pyrilamine (3 nM) was incubated with various concentrations of test compound for 1 hour at 22° C. with membranes prepared from human embryonic kidney (HEK-293) cells heterologously expressing the cloned human H1 histaminergic receptor. Bound radioactivity was determined by scintillation spectroscopy. Non-specific binding was defined as the amount of binding that occurred in the presence of 1.0 μM unlabeled pyrilamine.

CYP2D6 = molecular target: T2, CYP2D6 (Homo sapiens, UniProt P10635); assay: CYP2D6 inhibition, MAMC substrate; format: in vitro ADME; details: average of six replicate experiments; for inhibition at 10 µM: human, microsomes containing human recombinant CYP2D6, probe 7-methoxy-4-(aminomethyl)-coumarin (MAMC), 10 μM test compound, read-out: Inhibition of CYP2D6, % inhib. at 10 μM; for pIC50: 95% confidence limits in parentheses
T2 construct: purchased BD Bioscience
Description: Protocol. The inhibitory activities of AT and NT, (+)-E-10-OH-NT and (−)-E-10-OH-NT on cytochrome P450 function were tested using the methods of Chauret et al., 2001, using 7-methoxy-4-(aminomethyl)-coumarin (MAMC) (Venhorst et al., 2000) as substrate. The source of the enzyme was microsomes containing human recombinant CYP2D6 obtained from BD Bioscience. Conversion of MAMC to 7-hydroxy-4-(aminomethyl)coumarin was measured using a PerkinElmer Fusion with a 390 nm excitation filter and a 460 nm emission filter.

CYP2C19 = molecular target: T3, CYP2C19 (Homo sapiens, UniProt P33261); assay: CYP2C19 inhibition, DBF substrate; format: in vitro ADME; details: average of six replicate experiments; for inhibition at 10 µM: human, microsomes containing human recombinant CYP2C19, probe dibenzylfluorescein (DBF), 10 μM test compound, read-out: Inhibition of CYPD2C19, % inhib. at 10 μM; for pIC50: 95% confidence limits in parentheses, read-out: Inhibition of CYPD2C19, IC50
T3 construct: purchased BD Biosciences (San Jose, Calif.)
Description: CYP2C19 activity was measured using dibezylflourescein (DBF) as substrate. The source of enzyme was microsomes containing human recombinant CYP2C19 obtained from BD Biosciences (San Jose, Calif.). Conversion of DBF to fluorescein was measured using a PerkinElmer Fusion with a 485 nm excitation filter and a 535 nm emission filter.

[2] = molecular target: T4, human muscarinic receptor M3 (Homo sapiens, UniProt P20309); assay: Muscarinic M3 receptor binding, [3H]4-DAMP; details: read-out: Affinity for Muscarinic Receptors, M3, Ki
T4 construct: expressed in transfected cells; host or cells: CHO cells (membranes)
Description: Protocol. […] Bound radioactivity was determined by scintillation spectroscopy. Non-specific binding was defined as the amount of bound radioligand in the presence of 1.0 μM atropine. Radioligand for the M1 receptor was [^3H]pirenzepine (2 nM). Radioligand for the M2 receptor was [^3H]AF-DX384 (2 nM). Radioligand for the M3, M4, and M5 receptors was [^3H]4-DAMP.

[3] = molecular target: T5, human muscarinic receptor M5 (Homo sapiens, UniProt P08912); assay: Muscarinic M5 receptor binding, [3H]4-DAMP; details: read-out: Affinity for Muscarinic Receptors, M5, Ki
T5 construct: expressed in transfected cells; host or cells: CHO cells (membranes)
T5 sequence (P08912 1-532): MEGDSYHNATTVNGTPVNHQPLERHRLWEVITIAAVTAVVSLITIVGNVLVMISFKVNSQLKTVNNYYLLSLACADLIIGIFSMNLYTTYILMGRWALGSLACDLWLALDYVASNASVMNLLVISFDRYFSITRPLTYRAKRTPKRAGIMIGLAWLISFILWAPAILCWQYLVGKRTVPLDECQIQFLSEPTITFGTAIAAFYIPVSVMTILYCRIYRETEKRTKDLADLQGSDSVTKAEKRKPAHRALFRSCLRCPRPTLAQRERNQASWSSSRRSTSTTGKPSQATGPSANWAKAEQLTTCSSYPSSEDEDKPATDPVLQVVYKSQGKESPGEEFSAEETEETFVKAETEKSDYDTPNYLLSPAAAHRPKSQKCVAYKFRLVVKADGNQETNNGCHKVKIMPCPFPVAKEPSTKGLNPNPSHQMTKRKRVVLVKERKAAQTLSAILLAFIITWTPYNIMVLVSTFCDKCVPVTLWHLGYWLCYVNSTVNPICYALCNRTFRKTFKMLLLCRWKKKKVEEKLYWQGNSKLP
Description: Protocol. The affinities of AT, NT (+)-E-10-OH-NT and (−)-E-10-OH-NT for muscarinic receptors M1, M2, M3, M4 and M5 were determined with membranes prepared from CHO cells heterologously expressing the cloned human muscarinic receptors M1, M2, M3, M4 and M5. For the assays, membranes and radiolabelled ligand were incubated with various concentrations of test compounds for 1 hour at 22° C. Bound radioactivity was determined by scintillation spectroscopy. Non-specific binding was defined as the amount of bound radioligand in the presence of 1.0 μM atropine. Radioligand for the M1 receptor was [^3H]pirenzepine (2 nM). Radioligand for the M2 receptor was [^3H]AF-DX384 (2 nM). Radioligand for the M3, M4, and M5 receptors was [^3H]4-DAMP.

[4] = tested on: Sprague-Dawley rats, forced swim behaviour; assay: Rat Forced Swim Test of depression; format: in vivo; details: for amount of time spent climbing: 3-30 mg/kg IP
Source text: Protocol: Male Sprague-Dawley rats (approximately 200 g) are placed in a tank of room temperature water for a fifteen minute practice swim. Every five seconds during the first five minutes of the practice swim, the rats are rated as immobile (floating with motion needed to keep head above the water), swimming (movement across the swim), or climbing (actively trying to climb out of the tank of water, upward directed movements of the forepaws). The percentage of time the rats spent in each of these responses is calculated.
Approximately 24 h after the practice swim, the rats are treated with vehicle or test compound and placed in the tank for a 5 minute swim. As was the case with the practice swim, the rats are rated as immobile, swimming, or climbing during the test swim and the percentage of time spent in each of these responses is calculated. The data are analyzed by one-way ANOVA with post-hoc analysis to compare the behavioral response after vehicle treatment to the behavioral response after drug treatment for each of the three behavioral responses. The level of significance is set at p<0.05.
The percent of time spent immobile, swimming, and climbing (actively trying to scale the sides of the swim tank) in the test swim is shown in FIGS. 15 A, B, and C.

T1 sequence (P35367 whole entry): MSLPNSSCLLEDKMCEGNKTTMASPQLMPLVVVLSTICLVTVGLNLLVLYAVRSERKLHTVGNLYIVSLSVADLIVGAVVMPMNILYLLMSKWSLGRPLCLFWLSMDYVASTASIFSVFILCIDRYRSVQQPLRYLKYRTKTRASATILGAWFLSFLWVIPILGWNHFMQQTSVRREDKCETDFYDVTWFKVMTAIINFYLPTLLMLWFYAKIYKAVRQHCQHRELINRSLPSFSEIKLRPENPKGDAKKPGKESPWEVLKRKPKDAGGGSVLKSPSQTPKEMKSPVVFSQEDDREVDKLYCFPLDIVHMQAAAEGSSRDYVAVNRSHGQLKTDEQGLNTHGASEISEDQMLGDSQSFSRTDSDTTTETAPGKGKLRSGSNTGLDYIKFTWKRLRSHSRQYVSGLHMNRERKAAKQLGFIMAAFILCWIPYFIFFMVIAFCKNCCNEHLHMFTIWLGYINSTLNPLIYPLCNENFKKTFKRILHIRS
T3 sequence (P33261 whole entry): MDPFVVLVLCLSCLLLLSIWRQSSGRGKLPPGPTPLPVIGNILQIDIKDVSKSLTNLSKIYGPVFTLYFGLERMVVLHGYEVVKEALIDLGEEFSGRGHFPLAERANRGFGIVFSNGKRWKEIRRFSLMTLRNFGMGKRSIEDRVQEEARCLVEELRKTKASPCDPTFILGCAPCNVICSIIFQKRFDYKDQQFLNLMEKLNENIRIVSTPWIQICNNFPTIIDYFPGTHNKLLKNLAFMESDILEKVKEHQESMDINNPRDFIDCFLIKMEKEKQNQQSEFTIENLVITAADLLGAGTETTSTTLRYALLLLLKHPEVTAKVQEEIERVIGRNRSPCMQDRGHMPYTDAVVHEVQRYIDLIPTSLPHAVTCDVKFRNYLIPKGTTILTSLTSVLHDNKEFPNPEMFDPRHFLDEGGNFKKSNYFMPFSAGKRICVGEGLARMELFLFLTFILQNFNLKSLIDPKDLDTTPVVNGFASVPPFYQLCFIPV
T2 sequence (P10635 whole entry): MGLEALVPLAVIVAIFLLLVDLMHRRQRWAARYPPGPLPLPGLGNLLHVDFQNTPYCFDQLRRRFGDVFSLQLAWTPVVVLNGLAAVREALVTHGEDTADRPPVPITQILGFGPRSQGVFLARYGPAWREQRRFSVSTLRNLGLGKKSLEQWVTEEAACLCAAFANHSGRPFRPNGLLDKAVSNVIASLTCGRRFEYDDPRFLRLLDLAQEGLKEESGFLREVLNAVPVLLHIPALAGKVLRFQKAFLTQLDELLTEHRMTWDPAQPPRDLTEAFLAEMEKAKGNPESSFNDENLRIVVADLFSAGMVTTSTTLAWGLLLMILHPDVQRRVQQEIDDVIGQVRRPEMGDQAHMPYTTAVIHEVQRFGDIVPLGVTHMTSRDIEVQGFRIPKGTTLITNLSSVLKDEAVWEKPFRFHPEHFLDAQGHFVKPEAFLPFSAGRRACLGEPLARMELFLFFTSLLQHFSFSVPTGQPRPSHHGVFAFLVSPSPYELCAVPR
T4 sequence (P20309 whole entry): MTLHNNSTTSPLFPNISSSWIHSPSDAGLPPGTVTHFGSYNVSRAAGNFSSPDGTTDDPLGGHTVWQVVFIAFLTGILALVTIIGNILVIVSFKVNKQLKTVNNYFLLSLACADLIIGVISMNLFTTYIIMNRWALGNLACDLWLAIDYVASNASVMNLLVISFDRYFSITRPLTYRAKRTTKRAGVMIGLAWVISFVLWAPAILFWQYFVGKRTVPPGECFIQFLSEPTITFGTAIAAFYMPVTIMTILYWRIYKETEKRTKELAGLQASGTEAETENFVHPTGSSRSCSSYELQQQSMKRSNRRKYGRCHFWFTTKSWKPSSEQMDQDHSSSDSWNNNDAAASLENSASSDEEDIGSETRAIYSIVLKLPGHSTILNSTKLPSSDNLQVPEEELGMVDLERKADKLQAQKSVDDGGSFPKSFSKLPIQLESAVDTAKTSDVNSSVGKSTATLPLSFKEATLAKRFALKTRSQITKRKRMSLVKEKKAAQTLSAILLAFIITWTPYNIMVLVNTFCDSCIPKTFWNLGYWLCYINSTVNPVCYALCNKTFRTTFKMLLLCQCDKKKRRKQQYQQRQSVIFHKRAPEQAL

Q: With CNCC/C=C1\c2ccccc2C[C@@H](O)c2ccccc21 (stereo in doubt) [(−)-E-10-OH-NT] as the compound, how does the “reduction of H1 histaminergic receptor affinity compared to AT” value [1] read?
A: The value was 220 fold.

Q: And the “reduction of H1 histaminergic receptor affinity compared to NT” value [1]?
A: The value was 40 fold.

Q: What about the inhibition at 10 µM (CYP2D6) of the same compound?
A: The inhibition at 10 µM was 37%.

Q: And the inhibition at 10 µM (CYP2C19)?
A: Its inhibition at 10 µM is 24%.

Q: And the pKi [2]?
A: The pKi was 6.41.

Q: And the pKi [3]?
A: Its pKi is 6.82.

Q: What about the “increase in time spent swimming” value ([4]; 10 mg/kg IP) of the same compound?
A: Its value is 64%.

Q: What about the “increase in time spent swimming” value ([4]; 30 mg/kg IP) of the same compound?
A: The value was 108%.

Q: What about the “amount of time spent climbing” value [4] of the same compound?
A: The value was “did not alter the amount of time spent climbing”.

Q: With CNCC/C=C1\c2ccccc2C[C@H](O)c2ccccc21 (stereo in doubt) [(+)-E-10-OH-NT] as the compound, how does the “reduction of H1 histaminergic receptor affinity compared to AT” value [1] read?
A: Its value is 220 fold.

Q: What about the “reduction of H1 histaminergic receptor affinity compared to NT” value [1] of the same compound?
A: The value was 40 fold.

Q: What about the inhibition at 10 µM (CYP2D6) of the same compound?
A: Its inhibition at 10 µM is 40%.

Q: What about the inhibition at 10 µM (CYP2C19) of the same compound?
A: Its inhibition at 10 µM is 20%.

Q: And the pKi [2]?
A: Its pKi is 6.09.

Q: And the pKi [3]?
A: Its pKi is 6.55.

Q: What about the “activity in the forced swim test” value ([4]; doses up to 30 mg/kg IP) of the same compound?
A: Its value is “not active”.

Q: Which results are given for CN(C)CCC=C1c2ccccc2CCc2ccccc21 [AT, amitriptyline, reference compound]?
A: pIC50 (CYP2D6): 6.09; pIC50 (CYP2C19): 5.46; pKi [3]: 8.46; increase in time spent swimming ([4]; 10 mg/kg IP): 81%; increase in time spent swimming ([4]; 30 mg/kg IP): 147%; amount of time spent climbing [4]: did not alter the amount of time spent climbing

Q: Which results are given for CNCCC=C1c2ccccc2CCc2ccccc21 [NT, nortriptyline, reference compound]?
A: pIC50 (CYP2D6): 6.15; pIC50 (CYP2C19): 5.82; pKi [3]: 7.82
